Like-named read-outs stand apart in the source and are kept apart here.

From patent publication US10457677B2 (priority 2015, dated 2019) come the findings set out here.

In one test the target is PI3K (p120γ) (human) (Homo sapiens (Human), UniProt P48736). Briefly: PI3K (p120γ) (human), non-radioactive assay (HTRF). The class given is biochemical. The settings on record: read-out: IC50 (PI3Kgamma). In short, it runs like this: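 Enzyme was run with 10 μM phosphatidylinositol 4,5-bisphosphate, starting the reaction with MgATP at an unspecified level, for 30 min at room temperature. The stop used EDTA plus biotinylated PIP3, and detection used Eu-anti-GST, GST-GRP1 PH domain and streptavidin-APC. Signal was taken as HTRF = 10000×(Em665nm/Em620nm).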
Sequence of PI3K (p120γ) (human) (P48736 whole entry, the tested form may be a part): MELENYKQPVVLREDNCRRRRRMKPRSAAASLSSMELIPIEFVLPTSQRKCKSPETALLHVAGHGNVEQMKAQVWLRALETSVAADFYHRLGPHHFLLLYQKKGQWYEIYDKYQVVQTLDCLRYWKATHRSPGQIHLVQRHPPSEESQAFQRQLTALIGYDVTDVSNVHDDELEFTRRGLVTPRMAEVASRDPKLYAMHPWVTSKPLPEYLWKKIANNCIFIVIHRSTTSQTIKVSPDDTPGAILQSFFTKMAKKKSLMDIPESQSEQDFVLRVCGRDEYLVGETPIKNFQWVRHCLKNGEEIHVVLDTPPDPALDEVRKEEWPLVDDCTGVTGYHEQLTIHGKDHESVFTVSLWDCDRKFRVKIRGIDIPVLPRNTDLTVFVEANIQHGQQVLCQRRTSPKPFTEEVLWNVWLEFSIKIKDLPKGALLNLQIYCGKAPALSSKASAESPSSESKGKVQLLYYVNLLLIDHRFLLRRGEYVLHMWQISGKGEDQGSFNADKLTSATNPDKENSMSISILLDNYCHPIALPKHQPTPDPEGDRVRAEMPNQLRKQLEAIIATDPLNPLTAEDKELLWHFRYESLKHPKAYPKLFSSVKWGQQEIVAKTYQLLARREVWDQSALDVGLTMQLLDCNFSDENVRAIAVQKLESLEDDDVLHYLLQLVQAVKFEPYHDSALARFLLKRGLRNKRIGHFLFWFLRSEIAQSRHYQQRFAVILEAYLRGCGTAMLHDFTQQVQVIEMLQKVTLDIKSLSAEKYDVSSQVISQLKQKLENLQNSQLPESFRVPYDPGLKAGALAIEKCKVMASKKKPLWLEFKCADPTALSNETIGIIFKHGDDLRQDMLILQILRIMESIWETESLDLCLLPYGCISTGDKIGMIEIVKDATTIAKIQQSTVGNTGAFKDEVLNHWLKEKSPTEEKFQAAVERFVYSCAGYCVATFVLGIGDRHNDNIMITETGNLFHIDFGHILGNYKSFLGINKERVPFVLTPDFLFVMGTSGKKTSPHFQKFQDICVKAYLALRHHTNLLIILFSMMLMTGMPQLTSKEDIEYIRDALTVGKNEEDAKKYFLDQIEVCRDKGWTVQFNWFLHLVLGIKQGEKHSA
In general terms: Time-resolved FRET reads energy transfer from a long-lived donor to a nearby acceptor.

The next test deals with PI3K p110β/p85α (human) (Homo sapiens (Human), UniProt P42338). As to the kind of experiment: PI3K p110β/p85α (human), non-radioactive assay (HTRF). Type of test: biochemical. As to conditions: read-out: IC50 (PI3Kbeta). Here is the method:
PI3K p110β/p85α (Human), Non-radioactive Assay
PI3K p110β/p85α (human) was incubated in an assay buffer comprising 10 μM phosphati-dylinositol 4,5-bisphosphate and MgATP (concentration as necessary). The reaction was initiated by addition of MgATP solution. After an incubation time of 30 min at room temperature, the reaction was stopped by addition of a solution consisting of EDTA and biotinylated phosphatidylinositol 3,4,5-trisphosphate. Finally, the detection buffer, consisting of a europium-labelled anti-GST monoclonal antibody, a GST-labelled GRP1 PH domain and streptavidin allophycocyanin, was added. The plate was read out via homogeneous time-resolved fluorescence (HTRF) and the corresponding signals were evaluated via the formula HTRF=10000×(Em665nm/Em620nm).

Test [1] relates to phosphorylation of CHK2 (phospho-Thr68) in HCT116 cells. As to the kind of experiment: Cellular pCHK2 assay: bleomycin-induced phosphorylation of CHK2 (phospho-Thr68), immunofluorescence high-content analysis. The class given is cell-based, human. The settings on record: Homo sapiens, HCT-116, 4 h, read-out: IC50 (pCHK2). In short, it runs like this: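 HCT116 cells in DMEM with 10% FCS, incubated overnight at 37° C, then given compounds (1 nM to 30 μM, 0.5% DMSO) together with 10 μM bleomycin. Phospho-Thr68 CHK2 immunostained and imaged by high-content imager; nuclei with pCHK2 above background counted, cell count from propidium iodide DNA stain.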

For another test, the target named is mTOR (human) (Homo sapiens (Human), UniProt P42345). Briefly: mTOR (human) kinase assay, [γ-33P-ATP] filter assay. The class given is biochemical. The procedure, abridged:
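Radiometric filter assay: enzyme in 50 mM HEPES pH 7.5, 1 mM EGTA, 0.01% Tween 20, 3 mM MnCl2, 2 mg/ml substrate with [γ-33P-ATP], started with MgATP. Incubated 40 min at room temperature, stopped with 3% phosphoric acid; incorporation measured on P30 filtermat by scintillation counting.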

Test [2] concerns the target purified human recombinant ATM (ataxia telangiectasia mutated), full length (Homo sapiens (Human), UniProt Q13315). As to the kind of experiment: ATM kinase assay - determination of ATM inhibition (IC50 ATM), TR-FRET. Type of test: biochemical. The procedure, abridged:
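Full-length enzyme, expressed in a mammalian cell line, pre-incubated 15 min with inhibitor in 25 mM HEPES pH 8.0, 10 mM Mg(CH3COO)2, 1 mM MnCl2, 0,1% BSA, 0,01% Brij 35, 5 mM DTT. Full-length cmyc-p53 (Sf21-expressed) and ATP then added, 30-35 min at 22° C. EDTA stop; p53 S15 phosphorylation read by TR-FRET antibodies.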

The next test addresses PI3K p110α/p85α (human) (Homo sapiens (Human), UniProt P42336). As to the kind of experiment: PI3K p110α/p85α (human), non-radioactive assay (HTRF). Type of test: biochemical. The settings on record: read-out: IC50 (PI3Kalpha).
Another test addresses PI3K p110δ/p85α (human) (Homo sapiens (Human), UniProt O00329). As to the kind of experiment: PI3K p110δ/p85α (human), non-radioactive assay (HTRF). Type of test: biochemical. As to conditions: read-out: IC50 (PI3Kdelta).

Sequence of PI3K p110α/p85α (human) (P42336 whole entry): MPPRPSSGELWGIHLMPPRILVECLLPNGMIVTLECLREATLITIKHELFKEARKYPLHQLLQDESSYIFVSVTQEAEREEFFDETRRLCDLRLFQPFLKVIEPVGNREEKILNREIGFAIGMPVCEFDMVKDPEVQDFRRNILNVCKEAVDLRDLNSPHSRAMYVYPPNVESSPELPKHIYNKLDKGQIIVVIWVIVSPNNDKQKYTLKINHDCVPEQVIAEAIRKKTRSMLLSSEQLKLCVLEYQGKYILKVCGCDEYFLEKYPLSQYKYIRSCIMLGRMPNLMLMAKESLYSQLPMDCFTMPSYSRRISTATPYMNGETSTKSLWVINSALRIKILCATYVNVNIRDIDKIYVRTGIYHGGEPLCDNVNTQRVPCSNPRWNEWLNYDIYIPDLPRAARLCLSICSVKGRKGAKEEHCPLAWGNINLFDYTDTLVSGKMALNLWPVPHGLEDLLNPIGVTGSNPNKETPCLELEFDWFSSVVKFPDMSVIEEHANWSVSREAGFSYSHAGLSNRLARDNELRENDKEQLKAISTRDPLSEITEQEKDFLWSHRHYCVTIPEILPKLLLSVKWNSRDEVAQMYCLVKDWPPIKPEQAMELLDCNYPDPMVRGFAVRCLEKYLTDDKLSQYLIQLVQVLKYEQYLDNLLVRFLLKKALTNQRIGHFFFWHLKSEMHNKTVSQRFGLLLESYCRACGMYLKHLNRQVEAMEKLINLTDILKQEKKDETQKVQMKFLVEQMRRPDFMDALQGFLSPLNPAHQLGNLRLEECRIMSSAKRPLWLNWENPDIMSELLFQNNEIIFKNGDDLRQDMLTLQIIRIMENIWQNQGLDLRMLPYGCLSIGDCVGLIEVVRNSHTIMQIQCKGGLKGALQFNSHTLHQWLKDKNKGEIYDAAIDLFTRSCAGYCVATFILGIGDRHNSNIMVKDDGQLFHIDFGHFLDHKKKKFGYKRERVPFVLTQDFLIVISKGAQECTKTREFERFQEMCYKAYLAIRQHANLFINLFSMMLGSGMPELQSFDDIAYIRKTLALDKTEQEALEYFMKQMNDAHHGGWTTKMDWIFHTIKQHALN
Sequence of PI3K p110α/p85α (human) (P27986 whole entry partner): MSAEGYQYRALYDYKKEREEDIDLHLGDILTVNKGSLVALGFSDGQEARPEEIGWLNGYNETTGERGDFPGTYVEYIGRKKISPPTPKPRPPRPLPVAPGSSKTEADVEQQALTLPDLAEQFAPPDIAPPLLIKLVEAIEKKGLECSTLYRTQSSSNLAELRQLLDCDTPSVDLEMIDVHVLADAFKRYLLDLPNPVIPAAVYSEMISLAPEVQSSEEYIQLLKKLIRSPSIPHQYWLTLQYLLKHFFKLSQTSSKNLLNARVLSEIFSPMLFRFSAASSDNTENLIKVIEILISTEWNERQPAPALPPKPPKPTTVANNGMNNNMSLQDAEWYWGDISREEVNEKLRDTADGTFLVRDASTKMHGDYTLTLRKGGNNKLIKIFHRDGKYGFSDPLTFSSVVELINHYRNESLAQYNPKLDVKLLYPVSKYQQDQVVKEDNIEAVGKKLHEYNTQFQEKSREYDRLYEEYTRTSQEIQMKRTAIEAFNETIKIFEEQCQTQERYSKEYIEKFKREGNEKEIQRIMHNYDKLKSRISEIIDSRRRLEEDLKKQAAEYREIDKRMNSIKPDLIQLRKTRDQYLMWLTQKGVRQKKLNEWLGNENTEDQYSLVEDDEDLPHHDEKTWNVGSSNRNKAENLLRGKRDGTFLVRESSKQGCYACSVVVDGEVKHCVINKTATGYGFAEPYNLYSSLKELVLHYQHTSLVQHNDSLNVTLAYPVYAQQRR
Sequence of PI3K p110β/p85α (human) (P42338 whole entry): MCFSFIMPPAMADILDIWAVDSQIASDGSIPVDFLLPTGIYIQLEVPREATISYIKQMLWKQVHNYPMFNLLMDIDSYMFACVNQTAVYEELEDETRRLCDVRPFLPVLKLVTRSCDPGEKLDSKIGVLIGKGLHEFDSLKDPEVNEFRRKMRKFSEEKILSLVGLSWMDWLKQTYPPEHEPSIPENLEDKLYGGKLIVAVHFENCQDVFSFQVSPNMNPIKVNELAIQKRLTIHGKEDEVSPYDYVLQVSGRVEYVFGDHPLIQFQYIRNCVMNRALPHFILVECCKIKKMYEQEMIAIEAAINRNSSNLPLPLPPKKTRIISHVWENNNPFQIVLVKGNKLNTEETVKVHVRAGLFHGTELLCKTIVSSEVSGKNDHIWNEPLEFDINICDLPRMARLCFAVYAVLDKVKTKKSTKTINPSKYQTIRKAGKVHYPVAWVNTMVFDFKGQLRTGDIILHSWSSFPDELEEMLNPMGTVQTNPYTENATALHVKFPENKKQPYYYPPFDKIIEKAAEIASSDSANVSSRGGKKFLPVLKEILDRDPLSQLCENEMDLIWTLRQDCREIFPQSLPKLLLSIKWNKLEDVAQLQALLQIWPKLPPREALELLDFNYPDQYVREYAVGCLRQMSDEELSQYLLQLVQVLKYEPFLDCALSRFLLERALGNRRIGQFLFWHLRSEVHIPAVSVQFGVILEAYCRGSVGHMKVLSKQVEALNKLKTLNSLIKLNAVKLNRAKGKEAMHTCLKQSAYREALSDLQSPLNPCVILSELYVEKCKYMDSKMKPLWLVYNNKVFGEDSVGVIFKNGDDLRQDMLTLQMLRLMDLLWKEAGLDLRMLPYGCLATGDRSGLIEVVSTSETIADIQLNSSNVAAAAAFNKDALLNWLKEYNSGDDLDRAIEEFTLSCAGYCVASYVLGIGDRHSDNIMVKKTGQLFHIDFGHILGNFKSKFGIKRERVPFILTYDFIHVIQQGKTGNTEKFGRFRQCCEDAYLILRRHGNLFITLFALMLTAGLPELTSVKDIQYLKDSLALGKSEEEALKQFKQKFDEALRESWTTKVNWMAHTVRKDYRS
Sequence of PI3K p110β/p85α (human) (P27986 whole entry partner): as the sequence (P27986 whole entry partner) above
Sequence of PI3K p110δ/p85α (human) (O00329 whole entry): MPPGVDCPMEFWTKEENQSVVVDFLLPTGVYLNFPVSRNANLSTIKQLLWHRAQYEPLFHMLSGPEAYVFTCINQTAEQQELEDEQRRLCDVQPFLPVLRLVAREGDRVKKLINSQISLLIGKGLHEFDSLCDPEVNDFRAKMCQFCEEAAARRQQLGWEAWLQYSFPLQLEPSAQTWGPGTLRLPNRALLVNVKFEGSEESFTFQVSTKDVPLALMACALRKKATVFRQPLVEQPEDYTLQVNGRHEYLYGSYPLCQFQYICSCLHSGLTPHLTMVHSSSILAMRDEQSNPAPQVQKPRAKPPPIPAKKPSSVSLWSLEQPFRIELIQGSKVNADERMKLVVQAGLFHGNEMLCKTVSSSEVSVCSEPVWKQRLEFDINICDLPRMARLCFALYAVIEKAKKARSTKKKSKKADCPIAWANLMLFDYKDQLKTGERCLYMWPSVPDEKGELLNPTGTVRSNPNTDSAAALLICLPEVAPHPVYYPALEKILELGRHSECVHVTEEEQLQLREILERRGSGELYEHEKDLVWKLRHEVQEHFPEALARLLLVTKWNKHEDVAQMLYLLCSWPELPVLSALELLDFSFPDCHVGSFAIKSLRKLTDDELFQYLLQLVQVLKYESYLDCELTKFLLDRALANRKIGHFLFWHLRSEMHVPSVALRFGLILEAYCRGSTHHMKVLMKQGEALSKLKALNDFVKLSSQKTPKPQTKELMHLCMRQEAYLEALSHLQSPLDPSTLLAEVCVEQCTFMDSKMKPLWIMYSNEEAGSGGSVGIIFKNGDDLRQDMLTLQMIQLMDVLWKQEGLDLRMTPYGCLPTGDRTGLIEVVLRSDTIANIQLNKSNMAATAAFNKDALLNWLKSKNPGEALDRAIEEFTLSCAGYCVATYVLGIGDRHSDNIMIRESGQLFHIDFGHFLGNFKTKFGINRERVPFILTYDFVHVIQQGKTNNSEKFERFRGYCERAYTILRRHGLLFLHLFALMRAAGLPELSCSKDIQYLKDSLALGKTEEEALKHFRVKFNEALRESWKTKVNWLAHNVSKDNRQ
Sequence of PI3K p110δ/p85α (human) (P27986 whole entry partner): as the sequence (P27986 whole entry partner) above

As to `COc1cc2ncc3c(c2cc1-c1cn(C)nc1C)n(-c1ncccc1F)c(=O)n3C` [Compound Example 16, 8-(1,3-Dimethyl-1H-pyrazol-4-yl)-1-(3-fluoropyridin-2-yl)-7-methoxy-3-methyl-1,3-dihydroimidazo[4,5-c] quinolin-2-one], the IC50 at PI3K (p120γ) (human) is greater than 30 µM; on PI3K p110β/p85α (human), greater than 30 µM; in test [1] it was less than 0.2 µM; on mTOR (human), greater than 30 µM; in test [2] it was less than 0.001 µM; in test [2] (10 μM ATP, substrate p53) it was less than 0.001 µM. Also, the IC50 at PI3K p110α/p85α (human) and at PI3K p110δ/p85α (human) was greater than 30 µM throughout.
As for `COc1cc2ncc3c(c2cc1-c1cn[nH]c1)n(-c1cnn(C)c1)c(=O)n3C` [Compound Example 17, 7-Methoxy-3-methyl-1-(1-methyl-1H-pyrazol-4-yl)-8-(1H-pyrazol-4-yl)-1,3-dihydroimidazo[4,5-c] quinolin-2-one], the IC50 on PI3K (p120γ) (human) is greater than 30 µM; on PI3K p110β/p85α (human) it was greater than 30 µM; in test [1], less than 0.2 µM; on mTOR (human) it was greater than 10 µM; in test [2] it was less than 0.01 µM; in test [2] (10 μM ATP, substrate p53) it was less than 0.001 µM. For the same compound, the IC50 at PI3K p110α/p85α (human) and at PI3K p110δ/p85α (human) was greater than 30 µM each time.
Take `COc1cc2ncc3c(c2cc1-c1cnn(C)c1)n(-c1c(C)cncc1F)c(=O)n3C` [Compound Example 18, 1-(3-Fluoro-5-methylpyridin-4-yl)-7-methoxy-3-methyl-8-(1-methyl-1H-pyrazol-4-yl)-1,3-dihydroimidazo[4,5-c] quinolin-2-one]: the IC50 on PI3K (p120γ) (human) is greater than 5 µM; on PI3K p110β/p85α (human), greater than 30 µM; in test [1], less than 0.2 µM; at mTOR (human) it was greater than 5 µM; in test [2], less than 0.001 µM; in test [2] (10 μM ATP, substrate p53) it was less than 0.01 µM. Further, the results for the IC50 at PI3K p110α/p85α (human) and on PI3K p110δ/p85α (human) were greater than 10 µM and greater than 30 µM, respectively.
On to `COc1cc2ncc3c(c2cc1-c1cn[nH]c1)n(-c1ncc(C)cc1F)c(=O)n3C` [Compound Example 20, 1-(3-Fluoro-5-methylpyridin-2-yl)-7-methoxy-3-methyl-8-(1H-pyrazol-4-yl)-1,3-dihydroimidazo[4,5-c] quinolin-2-one], for which the IC50 is greater than 30 µM on PI3K (p120γ) (human); greater than 30 µM on PI3K p110β/p85α (human); less than 0.2 µM in test [1]; greater than 30 µM on mTOR (human); less than 0.001 µM in test [2]; less than 0.001 µM in test [2] (10 μM ATP, substrate p53). Besides, the IC50 on PI3K p110α/p85α (human) and on PI3K p110δ/p85α (human) was greater than 30 µM in each case.
Take `CCn1cc(-c2cc3c(cc2OC)ncc2c3n(-c3cn(C)nc3C)c(=O)n2C)cn1` [Compound Example 21, 1-(1,3-Dimethyl-1H-pyrazol-4-yl)-8-(1-ethyl-1H-pyrazol-4-yl)-7-methoxy-3-methyl-1,3-dihydroimidazo[4,5-c] quinolin-2-one]: the IC50 on PI3K (p120γ) (human) is greater than 300 µM; on PI3K p110β/p85α (human), greater than 30 µM; in test [1] it was less than 0.2 µM; on mTOR (human), greater than 5 µM; in test [2], less than 0.001 µM; in test [2] (10 μM ATP, substrate p53) it was less than 0.001 µM. The IC50 on PI3K p110α/p85α (human) is greater than 20 µM; on PI3K p110δ/p85α (human), greater than 30 µM.
With `COc1cc2ncc3c(c2cc1-c1cnn(C)c1)n(-c1cnn(C)c1)c(=O)n3C` [Compound Example 23, 7-Methoxy-3-methyl-1,8-bis-(1-methyl-1H-pyrazol-4-yl)-1,3-dihydroimidazo[4,5-c] quinolin-2-one], the IC50 at PI3K (p120γ) (human) is greater than 30 µM; on PI3K p110β/p85α (human), greater than 30 µM; in test [1], less than 0.2 µM; at mTOR (human), greater than 20 µM; in test [2] it was less than 0.01 µM; in test [2] (10 μM ATP, substrate p53) it was less than 0.01 µM. Also, the results for the IC50 at PI3K p110α/p85α (human) and on PI3K p110δ/p85α (human) were greater than 20 µM and greater than 30 µM, respectively.
With `CCn1cc(-c2cc3c(cc2OC)ncc2c3n(-c3ncccc3F)c(=O)n2C)cn1` [Compound Example 24, 8-(1-Ethyl-1H-pyrazol-4-yl)-1-(3-fluoropyridin-2-yl)-7-methoxy-3-methyl-1,3-dihydroimidazo[4,5-c] quinolin-2-one], the IC50 was greater than 30 µM on PI3K (p120γ) (human); greater than 30 µM on PI3K p110β/p85α (human); less than 0.2 µM in test [1]; greater than 30 µM against mTOR (human); less than 0.001 µM in test [2]; less than 0.001 µM in test [2] (10 μM ATP, substrate p53). For the same compound, the IC50 at PI3K p110α/p85α (human) and on PI3K p110δ/p85α (human) was greater than 30 µM in each case.
